The source made the active and inactive calls. The rule behind the calls is not given here.
Key:
[1] = organism: Homo sapiens; assay: Inhibition of Fructose-1,6-bisphosphatase (unknown origin) preincubated for 10 min followed by addition of NADP+, PGI,G6PDH at 10 uM measured after 40 min by absorption based analysis relative to control; conditions: time 50.0 min
[2] = biological target: Cytochrome P450 3A4 (Homo sapiens, UniProt P08684); assay: Inhibition of CYP3A4 (unknown origin) incubated for 30 min in presence of NADPH by LC-MS/MS analysis; assay type: ADME
Cytochrome P450 3A4, sequence (P08684 whole entry): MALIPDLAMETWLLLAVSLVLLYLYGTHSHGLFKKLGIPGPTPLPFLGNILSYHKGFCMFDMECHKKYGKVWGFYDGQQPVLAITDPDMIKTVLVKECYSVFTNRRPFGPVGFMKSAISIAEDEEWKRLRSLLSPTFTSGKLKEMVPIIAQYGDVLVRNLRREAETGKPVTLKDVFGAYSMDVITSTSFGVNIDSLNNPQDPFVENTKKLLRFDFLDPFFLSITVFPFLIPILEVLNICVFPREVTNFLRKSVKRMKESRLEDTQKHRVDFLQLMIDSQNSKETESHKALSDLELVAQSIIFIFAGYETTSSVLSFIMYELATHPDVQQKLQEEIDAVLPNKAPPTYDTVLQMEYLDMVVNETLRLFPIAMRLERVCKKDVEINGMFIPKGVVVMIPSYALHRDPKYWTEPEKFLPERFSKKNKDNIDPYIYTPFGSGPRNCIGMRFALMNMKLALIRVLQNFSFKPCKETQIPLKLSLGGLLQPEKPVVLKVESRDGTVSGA

[3] = system: Mus musculus; assay: Anti-diabetic activity against 16 hrs fasted ICR mouse assessed as reduced blood glucose level at 150 mg/kg, po measured after 30 to 90 min by oral pyruvate tolerance test; assay type: functional, organism-based; conditions: time 30-90 min
[4] = Clearance in ICR mouse at 100 mg/kg, po by HPLC-MS/MS analysis; assay type: ADME, organism-based; conditions: in vivo
[5] = MRT (0 to infinity) in ICR mouse at 100 mg/kg, po by HPLC-MS/MS analysis; assay type: ADME, organism-based; conditions: in vivo
[6] = MRT (0 to t) in ICR mouse at 100 mg/kg, po by HPLC-MS/MS analysis; assay type: ADME, organism-based; conditions: in vivo
[7] = Cmax in ICR mouse at 5 mg/kg, iv by HPLC-MS/MS analysis; assay type: ADME, organism-based; conditions: in vivo
[8] = MRT (0 to t) in ICR mouse at 5 mg/kg, iv by HPLC-MS/MS analysis; assay type: ADME, organism-based; conditions: in vivo
[9] = biological target: T1, Cytochrome P450 1A2 (Homo sapiens, UniProt P05177); assay: Inhibition of CYP1A2 (unknown origin) incubated for 30 min in presence of NADPH by LC-MS/MS analysis; assay type: ADME
T1 sequence (P05177 whole entry): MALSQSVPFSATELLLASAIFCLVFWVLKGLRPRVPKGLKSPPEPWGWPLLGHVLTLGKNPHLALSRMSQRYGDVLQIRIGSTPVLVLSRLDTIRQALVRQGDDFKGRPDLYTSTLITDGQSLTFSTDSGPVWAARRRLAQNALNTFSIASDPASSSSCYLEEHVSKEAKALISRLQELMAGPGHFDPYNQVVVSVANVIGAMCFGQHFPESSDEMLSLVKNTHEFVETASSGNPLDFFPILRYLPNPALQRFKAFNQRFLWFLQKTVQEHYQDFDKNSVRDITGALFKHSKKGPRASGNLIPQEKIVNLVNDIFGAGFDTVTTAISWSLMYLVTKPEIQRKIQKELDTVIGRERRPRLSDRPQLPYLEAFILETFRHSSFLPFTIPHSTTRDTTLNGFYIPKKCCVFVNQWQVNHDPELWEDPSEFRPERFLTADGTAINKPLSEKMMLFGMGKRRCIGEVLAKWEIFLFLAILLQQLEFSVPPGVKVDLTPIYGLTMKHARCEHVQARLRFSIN

[10] = AUC (0 to infinity) in ICR mouse at 5 mg/kg, iv by HPLC-MS/MS analysis; assay type: ADME, organism-based; conditions: in vivo
[11] = Half life in ICR mouse at 5 mg/kg, iv by HPLC-MS/MS analysis; assay type: ADME, organism-based; conditions: in vivo
[12] = AUC (0 to t) in ICR mouse at 5 mg/kg, iv by HPLC-MS/MS analysis; assay type: ADME, organism-based; conditions: in vivo
[13] = MRT (0 to infinity) in ICR mouse at 5 mg/kg, iv by HPLC-MS/MS analysis; assay type: ADME, organism-based; conditions: in vivo
[14] = biological target: Cytochrome P450 2D6 (Homo sapiens, UniProt P10635); assay: Inhibition of CYP2D6 (unknown origin) incubated for 30 min in presence of NADPH by LC-MS/MS analysis; assay type: ADME
Cytochrome P450 2D6, sequence (P10635 whole entry): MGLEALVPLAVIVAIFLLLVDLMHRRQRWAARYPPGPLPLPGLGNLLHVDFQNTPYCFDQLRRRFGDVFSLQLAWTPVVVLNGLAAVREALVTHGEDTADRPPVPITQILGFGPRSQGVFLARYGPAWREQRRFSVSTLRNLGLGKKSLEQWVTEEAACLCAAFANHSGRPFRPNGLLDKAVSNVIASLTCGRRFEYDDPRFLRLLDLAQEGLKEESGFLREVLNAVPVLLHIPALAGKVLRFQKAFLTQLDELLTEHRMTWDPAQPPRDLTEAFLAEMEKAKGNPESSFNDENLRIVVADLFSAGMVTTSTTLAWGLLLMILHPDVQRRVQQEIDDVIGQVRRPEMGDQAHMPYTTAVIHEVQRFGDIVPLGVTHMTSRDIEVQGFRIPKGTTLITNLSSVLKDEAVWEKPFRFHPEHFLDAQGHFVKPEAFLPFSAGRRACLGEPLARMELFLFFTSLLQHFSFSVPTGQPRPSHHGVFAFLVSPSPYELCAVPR

[15] = biological target: Cytochrome P450 2C9 (Homo sapiens, UniProt P11712); assay: Inhibition of CYP2C9 (unknown origin) incubated for 30 min in presence of NADPH by LC-MS/MS analysis; assay type: ADME
Cytochrome P450 2C9, sequence (P11712 whole entry): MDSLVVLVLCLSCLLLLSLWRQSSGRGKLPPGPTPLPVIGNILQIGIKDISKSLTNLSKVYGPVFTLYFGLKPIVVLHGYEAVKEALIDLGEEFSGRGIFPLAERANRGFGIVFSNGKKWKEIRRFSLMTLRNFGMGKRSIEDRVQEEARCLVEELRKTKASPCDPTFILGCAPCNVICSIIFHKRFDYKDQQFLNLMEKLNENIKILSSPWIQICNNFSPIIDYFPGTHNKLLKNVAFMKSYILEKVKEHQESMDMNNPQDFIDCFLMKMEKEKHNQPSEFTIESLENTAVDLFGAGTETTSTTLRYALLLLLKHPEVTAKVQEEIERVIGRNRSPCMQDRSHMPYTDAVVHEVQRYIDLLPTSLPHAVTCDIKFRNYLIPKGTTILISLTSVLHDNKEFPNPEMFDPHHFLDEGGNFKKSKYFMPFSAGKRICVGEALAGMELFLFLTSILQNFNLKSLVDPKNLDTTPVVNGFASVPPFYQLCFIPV

[16] = Tmax in ICR mouse at 100 mg/kg, po by HPLC-MS/MS analysis; assay type: ADME, organism-based; conditions: in vivo
[17] = Clearance in ICR mouse at 5 mg/kg, iv by HPLC-MS/MS analysis; assay type: ADME, organism-based; conditions: in vivo
[18] = Oral Bioavailability in ICR mouse at 100 mg/kg by HPLC-MS/MS analysis; assay type: ADME, organism-based; conditions: in vivo
[19] = Inhibition of Fructose-1,6-bisphosphatase (unknown origin) preincubated for 10 min followed by addition of NADP+, PGI,G6PDH and measured after 40 min by absorption based analysis; parameters: species or system Homo sapiens
[20] = Apparent volume of distribution in ICR mouse at 5 mg/kg, iv by HPLC-MS/MS analysis; assay type: ADME, organism-based; conditions: in vivo, read-out: Vz
[21] = Half life in ICR mouse at 100 mg/kg, po by HPLC-MS/MS analysis; assay type: ADME, organism-based; conditions: in vivo
[22] = Apparent volume of distribution in ICR mouse at 100 mg/kg, po by HPLC-MS/MS analysis; assay type: ADME, organism-based; conditions: in vivo
[23] = AUC (0 to t) in ICR mouse at 100 mg/kg, po by HPLC-MS/MS analysis; assay type: ADME, organism-based; conditions: in vivo
[24] = Tmax in ICR mouse at 5 mg/kg, iv by HPLC-MS/MS analysis; assay type: ADME, organism-based; conditions: in vivo
[25] = biological target: Cytochrome P450 2C19 (Homo sapiens, UniProt P33261); assay: Inhibition of CYP2C19 (unknown origin) incubated for 30 min in presence of NADPH by LC-MS/MS analysis; assay type: ADME
Cytochrome P450 2C19, sequence (P33261 whole entry): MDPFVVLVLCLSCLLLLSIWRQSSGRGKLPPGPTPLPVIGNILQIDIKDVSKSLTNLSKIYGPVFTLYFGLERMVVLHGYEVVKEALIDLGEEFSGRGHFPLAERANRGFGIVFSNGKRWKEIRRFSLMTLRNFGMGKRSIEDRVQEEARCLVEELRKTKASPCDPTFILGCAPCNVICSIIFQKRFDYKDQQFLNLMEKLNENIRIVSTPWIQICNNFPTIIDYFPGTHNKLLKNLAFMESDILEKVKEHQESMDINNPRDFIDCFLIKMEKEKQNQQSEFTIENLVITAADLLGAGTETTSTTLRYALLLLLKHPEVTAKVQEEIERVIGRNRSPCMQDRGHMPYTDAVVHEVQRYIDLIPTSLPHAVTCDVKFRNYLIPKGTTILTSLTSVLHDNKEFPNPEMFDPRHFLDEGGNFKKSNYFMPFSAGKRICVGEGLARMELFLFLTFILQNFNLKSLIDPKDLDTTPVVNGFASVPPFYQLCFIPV

[26] = AUC (0 to infinity) in ICR mouse at 100 mg/kg, po by HPLC-MS/MS analysis; assay type: ADME, organism-based; conditions: in vivo
[27] = biological target: Cytochrome P450 3A5 (Homo sapiens, UniProt P20815); assay: Inhibition of CYP3A5 (unknown origin) incubated for 30 min in presence of NADPH by LC-MS/MS analysis; assay type: ADME
Cytochrome P450 3A5, sequence (P20815 whole entry): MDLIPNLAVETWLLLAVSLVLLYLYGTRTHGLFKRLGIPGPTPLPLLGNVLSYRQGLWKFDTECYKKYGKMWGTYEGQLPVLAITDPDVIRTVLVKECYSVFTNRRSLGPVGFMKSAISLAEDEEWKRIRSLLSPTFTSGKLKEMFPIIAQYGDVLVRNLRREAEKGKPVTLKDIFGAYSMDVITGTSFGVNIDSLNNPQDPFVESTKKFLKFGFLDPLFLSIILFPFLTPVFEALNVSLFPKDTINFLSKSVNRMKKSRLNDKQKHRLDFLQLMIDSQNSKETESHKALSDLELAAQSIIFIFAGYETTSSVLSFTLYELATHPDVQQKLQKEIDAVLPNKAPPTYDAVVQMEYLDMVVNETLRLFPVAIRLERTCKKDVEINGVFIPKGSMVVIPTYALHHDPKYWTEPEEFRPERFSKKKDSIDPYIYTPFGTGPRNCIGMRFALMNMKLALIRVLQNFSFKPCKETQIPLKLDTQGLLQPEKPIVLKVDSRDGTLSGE

[28] = Cmax in ICR mouse at 100 mg/kg, po by HPLC-MS/MS analysis; assay type: ADME, organism-based; conditions: in vivo
[29] = Inhibition of Fructose-1,6-bisphosphatase (unknown origin); parameters: species or system Homo sapiens

In the case of `O=S(=O)(Nc1ccccc1-c1nc2ccccc2n1-c1ccc(Cl)cc1)c1ccc(Cl)cc1`, the inhibition [1] is reported as 28.9%.
For `COc1ccc(S(=O)(=O)Nc2cccc(-c3nc4ccccc4n3-c3ccc(NC(C)=O)cc3)c2)cc1`, the inhibition [1] was 36.8%.
With `COc1ccc(S(=O)(=O)NC(=O)c2cccc(-c3nc4ccccc4n3C(C)C)c2)cc1` the inhibition [1] was 0%.
`COc1ccc(S(=O)(=O)NC(=O)c2cccc(-c3nc4ccccc4n3C)c2)cc1` showed an inhibition [1] of 5.7%.
With `O=S(=O)(Nc1cccc(-c2nc3ccccc3[nH]2)c1)c1ccc(Cl)cc1` the inhibition [1] was 0%.
`CC(C)n1c(-c2cccc(C(=O)NS(=O)(=O)c3ccc(Cl)cc3)c2)nc2ccccc21` showed an inhibition [1] of 0%.
In the case of `COc1ccc(S(=O)(=O)Nc2cccc(-c3nc4ccccc4n3C(C)C)c2)cc1`, the inhibition [1] is reported as 7.1%.
In the case of `COc1ccc(S(=O)(=O)NC(=O)c2cc(Cl)cc(-c3nc4ccccc4[nH]3)c2)cc1`, the IC50 [2] is reported as 20 µM, the Activity [3] is reported as “Active” and the CL/F [4] is reported as 87 mL/min/kg. It also gave an MRT inf [5] of 3 h, an MRT last [6] of 3 h and a Cmax [7] of 33500 ng/mL. For the same molecule, the inhibition [1] was 81.8%, the MRT last [8] was 1.86 h and the IC50 [9] was 47.2 µM. For the same molecule, the AUC(0-inf) [10] was 15900 ng·h/mL, the half-life [11] was 1.79 h and the AUC(0-t) [12] was 15900 ng·h/mL. It also gave an MRT inf [13] of 1.86 h, an IC50 [14] of 36.8 µM and an IC50 [15] of 1.31 µM. For the same molecule, the Tmax [16] was 0.25 h, the clearance [17] was 5.27 mL/min/kg and the bioavailability [18] was 6.15%. For the same molecule, the IC50 [19] was 2.08 µM, the Vd [20] was 0.813 L/kg and the half-life [21] was 1.29 h. The Vz [22] was 9.799 L/kg, the AUC(0-t) [23] was 19500 ng·h/mL and the Tmax [24] was 1.98 min. For the same molecule, the IC50 [25] was > 50 µM, the AUC(0-inf) [26] was 19500 ng·h/mL and the IC50 [27] was 20 µM. It also gave a Cmax [28] of 7160 ng/mL.
Molecule `O=S(=O)(Nc1cccc(-c2nc3ccccc3n2C2CCCCC2)c1)c1ccc(Cl)cc1` has an inhibition [1] of 24.8%.
With `COc1ccc(S(=O)(=O)Nc2cccc(-c3nc4ccccc4[nH]3)c2)cc1` the inhibition [1] was 0%.
`COc1ccc(S(=O)(=O)Nc2ccccc2-c2nc3ccccc3n2-c2ccc(Cl)cc2)cc1` showed an inhibition [1] of 28.9%.
For `COc1ccccc1CNC(=O)N1C(=O)c2ccccc2S1(=O)=O`, the IC50 [29] was 1.7 µM.
Molecule `CC(C)=CCc1c(O)cc(O)c2c(=O)c(O)c(-c3ccc(O)c(O)c3)oc12` has an IC50 [29] of 3.62 µM.
In the case of `S=C(SSC(=S)n1cccc1)n1cccc1`, the IC50 [29] is reported as 0.13 µM.
`Cn1c(-c2cccc(NS(=O)(=O)c3ccc(Cl)cc3)c2)nc2ccccc21` showed an inhibition [1] of 0%.
`O=S(=O)(Nc1cccc(-c2nc3ccccc3n2-c2ccc(Cl)cc2)c1)c1ccc(Cl)cc1` gave an inhibition [1] of 63.5% and an IC50 [19] of 8.04 µM.
`O=C(NS(=O)(=O)c1ccc(F)cc1)c1ccccc1N1CCN(Cc2nc3ccccc3n2C2CCCCC2)CC1` gave an inhibition [1] of 64.3%.
Molecule `COc1ccc(S(=O)(=O)Nc2ccccc2-c2nc3ccccc3n2Cc2ccc(Cl)cc2)cc1` has an inhibition [1] of 5.6%.
Molecule `COc1ccc(S(=O)(=O)Nc2cccc(-c3nc4ccccc4n3Cc3ccc(Cl)cc3)c2)cc1` has an inhibition [1] of 7.1%.
In the case of `CC(=O)Nc1ccc(-n2c(-c3ccccc3NS(=O)(=O)c3ccc(Cl)cc3)nc3ccccc32)cc1`, the inhibition [1] is reported as 25%.
